In one experiment the target is AR / CBP ternary complex (Homo sapiens, UniProt P10275+Q92793). Nature of the experiment: Ternary complex formation assay (sandwich ELISA, AR capture, CBP antibody detection) in VCaP cell lysates. The class given is cell-based. The following applies: treated 1.5 hours, rabbit CBP or p300 antibody detection, average, read-out: Average Ternary Complex. As for the experimental part:
Black MaxiSorp plates: coat with 50 μL of mouse 1/50 diluted AR antibody (Monoclonal Antibody (AR 441 from Thermo Fisher); diluted in phosphate buffered saline (PBS). Spin the liquid to the bottom of the wells, if necessary. Incubate overnight at 4° C. Next day, wash 3 times with 200 μL of TBST. Block with 200 μL of blocking buffer (5% BSA in TBST) at room temperature for 2 hours (BSA: A4503 or A2153 from Sigma). Wash plates 3 times with TBST. Plates are ready for lysates Preparation of dimerizer treated lysates
Culture cells in 96 wells at 50K VCaP cells/well for at least 3 days. Plate in 5% Omega charcoal stripped FBS in total volume of 200 uL. Treat with bifunctional for 1.5 hours by adding 1 μL of 200× stock in DMSO. Aspirate media/compound. Add and pipet-to-mix 70 μL of 1× AlphaLisa Lysis Buffer to each well (Perkin Elmer, AlphaLISA SureFire Ultra, diluted in water). Pipet up and down when adding lysis buffer to disrupt cells. Let lysis proceed for 30 min at 4° C.
Incubate for 1 hour at room temperature. Flick out the lysates. Wash 3 times with TBST. Add 75 μL of rabbit CBP or p300 antibody to each well (diluted 1:5000 in blocking buffer (5% BSA in TBST). CBP antibody: (D6C5) Rabbit mAb #7389; p300 antibody: (D8Z4E) Rabbit mAb #86377. Incubate overnight at 4° C. Wash 3 times with 300 uL TBST, each time on shaker for 5-10 min. Prepare goat anti-rabbit antibody conjugated to HRP (1/100K dilution in blocking buffer) Invitrogen Catalog number: 32260. Add 75 μL of HRP-conjugated goat anti-rabbit antibody. Incubate at room temperature for 1 hour. Flick out the HRP-antibody mixture. Wash 7-8 times with TBST, each time on shaker for 10 min. Later washes try to overflow the wells so that no residual HRP remains bound to the sides of the well. Prepare and add 75 uL/well of QuantaRed Enhance Chemifluorescent HRP Substrate solution. Immediately read fluorescence on BMG ClarioStar (ex: 570/em 585), and repeat the read in 5 minutes and 15 minutes.

The next experiment has as its system VCaP cells. Nature of the experiment: VCaP growth inhibition assay (CTG). The following applies: 30 pM R1881, 9 days. Format: cell-based. As for the experimental part: VCaP cells (ATCC Cat #CRL-2876) are plated at 1×10^4 cells per well of a white plastic 96-well cluster plate (Thermo Scientific Nunc Cat #165306) in 100 uL phenol red-free DMEM (Gibco Cat #21063-029) media with 5% CSS (Omega Scientific Cat #FB-04). Cluster plates are returned to the incubator (37*C/5% CO2) for 72 hours prior to treatment. Just prior to treatment, 100 uL of phenol red-free DMEM/5% CSS and 60 pM R1881 (Sigma Cat #R0908-10 mg) was added to each well of the cluster plates (Final R1881 concentration=30 pM). Compounds (200X) were added to each well in a volume of 1 uL, with serial dilutions (1:5) from 20 uM to 2 pM (final concentrations in well are 100 nM to 10 fM). Cluster plates are returned to the incubator for 9 days.
After the 9-day treatment period, media was removed from the cluster plates by inversion and 100 uL room temperature CTG reagent (Promega Cat #G7573) is added to each well. The cluster plates are placed on a shaker and incubated at room temperature for 20 minutes. Following this shaking/incubation, cluster plates are read on a luminometer (BMG ClarioStar). IC50 values are obtained by graphing the RLU data vs. compound concentration with nonlinear regression 4-parameter logistic curves (GraphPad Prism).

pEC50, pIC50: −log10 of the molar value.

AR / CBP ternary complex, sequence (P10275 whole entry): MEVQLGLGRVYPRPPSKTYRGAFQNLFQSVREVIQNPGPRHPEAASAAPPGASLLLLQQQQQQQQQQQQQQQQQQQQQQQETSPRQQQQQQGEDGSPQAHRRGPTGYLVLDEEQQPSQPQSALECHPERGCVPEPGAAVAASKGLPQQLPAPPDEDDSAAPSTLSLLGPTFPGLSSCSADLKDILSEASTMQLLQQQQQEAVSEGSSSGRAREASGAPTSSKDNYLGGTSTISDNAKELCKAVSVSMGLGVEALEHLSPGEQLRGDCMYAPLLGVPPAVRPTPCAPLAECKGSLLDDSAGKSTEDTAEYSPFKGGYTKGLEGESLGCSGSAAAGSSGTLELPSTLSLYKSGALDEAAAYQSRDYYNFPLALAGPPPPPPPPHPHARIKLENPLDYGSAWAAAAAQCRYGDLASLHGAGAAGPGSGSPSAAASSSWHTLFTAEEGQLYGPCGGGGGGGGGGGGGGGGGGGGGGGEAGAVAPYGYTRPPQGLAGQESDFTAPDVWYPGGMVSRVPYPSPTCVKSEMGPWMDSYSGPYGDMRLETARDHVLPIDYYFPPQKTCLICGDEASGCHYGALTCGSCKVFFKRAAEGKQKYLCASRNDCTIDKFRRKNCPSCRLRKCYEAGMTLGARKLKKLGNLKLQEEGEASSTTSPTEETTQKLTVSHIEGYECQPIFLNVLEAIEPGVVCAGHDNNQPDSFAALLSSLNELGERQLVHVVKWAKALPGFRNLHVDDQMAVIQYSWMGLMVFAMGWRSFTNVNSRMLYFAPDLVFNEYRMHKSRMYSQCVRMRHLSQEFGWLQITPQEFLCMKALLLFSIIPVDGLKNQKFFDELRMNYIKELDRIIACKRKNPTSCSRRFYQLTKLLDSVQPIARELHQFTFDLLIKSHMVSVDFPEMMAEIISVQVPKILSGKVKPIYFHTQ
AR / CBP ternary complex, sequence (Q92793 2-2442): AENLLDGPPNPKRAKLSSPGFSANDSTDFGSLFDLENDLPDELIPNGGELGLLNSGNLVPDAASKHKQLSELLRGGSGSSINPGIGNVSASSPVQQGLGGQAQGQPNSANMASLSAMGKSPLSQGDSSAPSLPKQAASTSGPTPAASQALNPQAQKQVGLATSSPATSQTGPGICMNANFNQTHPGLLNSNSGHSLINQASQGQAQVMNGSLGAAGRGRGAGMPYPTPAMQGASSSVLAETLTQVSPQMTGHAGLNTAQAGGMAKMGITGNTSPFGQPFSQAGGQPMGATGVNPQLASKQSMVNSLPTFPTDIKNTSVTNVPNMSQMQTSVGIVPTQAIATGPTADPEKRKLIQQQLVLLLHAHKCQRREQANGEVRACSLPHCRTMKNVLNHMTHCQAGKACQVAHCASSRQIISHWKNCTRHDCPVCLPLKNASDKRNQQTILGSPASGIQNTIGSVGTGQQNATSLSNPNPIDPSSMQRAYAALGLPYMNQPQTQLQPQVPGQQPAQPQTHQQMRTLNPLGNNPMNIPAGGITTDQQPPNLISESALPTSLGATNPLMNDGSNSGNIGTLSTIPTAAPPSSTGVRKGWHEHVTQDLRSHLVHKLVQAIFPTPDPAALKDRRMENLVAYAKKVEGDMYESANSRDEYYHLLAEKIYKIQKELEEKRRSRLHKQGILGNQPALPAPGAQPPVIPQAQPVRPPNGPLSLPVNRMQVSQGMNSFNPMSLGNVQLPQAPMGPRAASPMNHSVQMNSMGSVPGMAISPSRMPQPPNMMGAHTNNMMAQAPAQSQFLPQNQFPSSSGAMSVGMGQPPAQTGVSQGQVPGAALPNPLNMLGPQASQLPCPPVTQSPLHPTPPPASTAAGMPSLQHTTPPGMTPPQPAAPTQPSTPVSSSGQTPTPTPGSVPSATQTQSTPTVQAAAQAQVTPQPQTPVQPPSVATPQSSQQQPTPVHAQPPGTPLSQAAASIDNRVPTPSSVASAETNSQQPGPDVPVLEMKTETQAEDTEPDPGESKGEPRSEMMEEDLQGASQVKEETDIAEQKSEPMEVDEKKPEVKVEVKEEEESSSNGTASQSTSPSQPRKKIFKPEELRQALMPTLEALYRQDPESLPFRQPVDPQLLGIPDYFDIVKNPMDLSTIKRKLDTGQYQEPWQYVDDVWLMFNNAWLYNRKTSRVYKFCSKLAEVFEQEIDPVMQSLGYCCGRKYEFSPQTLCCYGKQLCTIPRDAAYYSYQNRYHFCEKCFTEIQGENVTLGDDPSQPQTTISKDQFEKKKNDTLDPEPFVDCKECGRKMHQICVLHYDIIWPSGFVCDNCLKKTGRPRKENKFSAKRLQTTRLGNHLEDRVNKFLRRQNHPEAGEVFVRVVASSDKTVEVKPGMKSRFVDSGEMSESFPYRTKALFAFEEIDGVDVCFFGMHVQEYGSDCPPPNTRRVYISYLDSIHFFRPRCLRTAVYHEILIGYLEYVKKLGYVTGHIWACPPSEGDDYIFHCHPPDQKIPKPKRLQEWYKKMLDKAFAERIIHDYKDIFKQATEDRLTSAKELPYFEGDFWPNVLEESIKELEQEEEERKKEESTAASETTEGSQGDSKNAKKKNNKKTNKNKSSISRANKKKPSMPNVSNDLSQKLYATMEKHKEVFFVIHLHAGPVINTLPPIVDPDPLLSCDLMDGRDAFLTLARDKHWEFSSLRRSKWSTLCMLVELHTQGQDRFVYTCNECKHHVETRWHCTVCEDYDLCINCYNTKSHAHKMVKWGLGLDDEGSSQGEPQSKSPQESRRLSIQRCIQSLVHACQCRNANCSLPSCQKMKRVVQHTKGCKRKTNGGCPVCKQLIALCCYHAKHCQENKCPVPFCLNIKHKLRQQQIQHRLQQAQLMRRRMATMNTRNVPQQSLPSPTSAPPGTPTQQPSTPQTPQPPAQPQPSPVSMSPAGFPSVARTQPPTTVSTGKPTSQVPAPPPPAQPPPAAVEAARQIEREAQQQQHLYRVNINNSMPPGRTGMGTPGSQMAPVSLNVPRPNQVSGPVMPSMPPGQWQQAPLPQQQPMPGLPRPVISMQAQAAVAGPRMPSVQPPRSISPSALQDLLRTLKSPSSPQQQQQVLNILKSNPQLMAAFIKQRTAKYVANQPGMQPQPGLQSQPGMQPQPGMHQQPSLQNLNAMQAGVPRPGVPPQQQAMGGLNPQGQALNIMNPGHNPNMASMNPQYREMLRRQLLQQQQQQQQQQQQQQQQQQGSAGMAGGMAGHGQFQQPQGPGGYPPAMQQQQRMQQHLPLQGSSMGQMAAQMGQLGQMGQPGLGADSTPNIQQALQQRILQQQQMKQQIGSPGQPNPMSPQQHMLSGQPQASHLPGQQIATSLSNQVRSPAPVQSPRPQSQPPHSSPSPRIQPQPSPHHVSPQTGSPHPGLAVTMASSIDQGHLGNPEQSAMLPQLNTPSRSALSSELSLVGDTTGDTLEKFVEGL

In the case of `CC(=O)N1CCc2c(c(N3CCCc4cc(-c5cnn(C)c5)c(C(F)F)cc43)nn2C2CCN(C[C@H]3CCN(c4ccc(C(=O)N[C@H]5CC[C@H](Oc6ccc(C#N)c(Cl)c6)CC5)nn4)C[C@H]3C)CC2)C1` (stereo in doubt) [Compound 101, 6-[4-[[4-[5-acetyl-3-[7-(difluoromethyl)-6-(1-methylpyrazol-4-yl)-3,4-dihydro-2H-quinolin-1-yl]-6,7-dihydro-4H-pyrazolo[4,3-c]pyridin-1-yl]-1-piperidyl]methyl]-3-methyl-1-piperidyl]-N-[4-(3-chloro-4-cyano-phenoxy)cyclohexyl]pyridazine-3-carboxamide], the pEC50 at AR / CBP ternary complex was over 9.00. Besides, in the experiment with VCaP cells, the negative-log IC50 (pIC50) was at least 10.00.
On to `CC(=O)N1CCc2c(c(N3CCCc4cc(C#N)ccc43)nn2C2CCN(C[C@H]3CCN(c4ccc(C(=O)N[C@H]5CC[C@H](Oc6ccc(C#N)c(Cl)c6)CC5)nn4)C[C@@H]3C)CC2)C1` (stereo in doubt) [Compound 105, 6-[4-[[4-[5-acetyl-3-(6-cyano-3,4-dihydro-2H-quinolin-1-yl)-6,7-dihydro-4H-pyrazolo[4,3-c]pyridin-1-yl]-1-piperidyl]methyl]-3-methyl-1-piperidyl]-N-[4-(3-chloro-4-cyano-phenoxy)cyclohexyl]pyridazine-3-carboxamide], for which the pEC50 on AR / CBP ternary complex is over 9.00. Further, in the experiment with VCaP cells (Homo sapiens, 216 h), the negative-log IC50 (pIC50) was 9.00 to 10.00.
The like results for `CO[C@H]1CN(c2ccc(C(=O)N[C@H]3CC[C@H](Oc4ccc(C#N)c(Cl)c4)CC3)nn2)CC[C@@H]1CN1CCC(n2nc(N3CCCc4cc(-c5cnn(C)c5)c(C(F)F)cc43)c3c2CCN(C(C)=O)C3)CC1` (stereo in doubt) [Compound 220, 6-[4-[[4-[5-acetyl-3-[7-(difluoromethyl)-6-(1-methylpyrazol-4-yl)-3,4-dihydro-2H-quinolin-1-yl]-6,7-dihydro-4H-pyrazolo[4,3-c]pyridin-1-yl]-1-piperidyl]methyl]-3-methoxy-1-piperidyl]-N-[4-(3-chloro-4-cyano-phenoxy)cyclohexyl]pyridazine-3-carboxamide] were, in that order, over 9.00 and at least 10.00.
On the same counts, the results for `CC(=O)N1CCc2c(c(N3CCCc4cc(-c5cnn(C)c5)c(C(F)F)cc43)nn2C2CCN(C(=O)C3CCN(c4ccc(C(=O)N[C@H]5CC[C@H](Oc6ccc(C#N)c(Cl)c6)CC5)nn4)CC3)CC2)C1` [Compound 2] are over 9.00 and at least 10.00.
On the same counts, the results for `CC(=O)N1CCc2c(c(N3CCCc4cc(-c5cnn(C)c5)c(C)cc43)nn2C2CCN(C(=O)C3CCN(c4ccc(C(=O)N[C@H]5CC[C@H](Oc6ccc(C#N)c(Cl)c6)CC5)nn4)CC3)CC2)C1` [Compound 3, 6-[4-[4-[5-acetyl-3-[7-methyl-6-(1-methylpyrazol-4-yl)-3,4-dihydro-2H-quinolin-1-yl]-6,7-dihydro-4H-pyrazolo[4,3-c]pyridin-1-yl]piperidine-1-carbonyl]-1-piperidyl]-N-[4-(3-chloro-4-cyano-phenoxy)cyclohexyl]pyridazine-3-carboxamide] are over 9.00 and at least 10.00.
Regarding `CC(=O)N1CCc2c(c(-c3cccc4cc(-c5cnn(C)c5)ncc34)nn2C2CN(CC3CCN(c4ccc(C(=O)N[C@H]5CC[C@H](Oc6ccc(C#N)c(Cl)c6)CC5)nn4)CC3)C2)C1` [Compound 4, 6-[4-[[3-[5-acetyl-3-[3-(1-methylpyrazol-4-yl)-8-isoquinolyl]-6,7-dihydro-4H-pyrazolo[4,3-c]pyridin-1-yl]azetidin-1-yl]methyl]-1-piperidyl]-N-[4-(3-chloro-4-cyano-phenoxy)cyclohexyl]pyridazine-3-carboxamide], at AR / CBP ternary complex, the pEC50 is over 9.00. The pIC50 with VCaP cells (Homo sapiens, 216 h) is at least 10.00.
Take `CC(=O)N1CCc2c(c(-c3cccc4cc(-c5cnn(C)c5)ncc34)nn2C2CCN(CCC3CCN(c4ccc(C(=O)N[C@H]5CC[C@H](Oc6ccc(C#N)c(Cl)c6)CC5)nn4)CC3)CC2)C1` [Compound 5, 6-[4-[2-[4-[5-acetyl-3-[3-(1-methylpyrazol-4-yl)-8-isoquinolyl]-6,7-dihydro-4H-pyrazolo[4,3-c]pyridin-1-yl]-1-piperidyl]ethyl]-1-piperidyl]-N-[4-(3-chloro-4-cyano-phenoxy)cyclohexyl]pyridazine-3-carboxamide]: on AR / CBP ternary complex, the pEC50 is over 9.00. This molecule gave a negative-log IC50 (pIC50) with VCaP cells (Homo sapiens, 216 h) of at least 10.00.
On the same counts, the results for `CC(=O)N1CCc2c(c(-c3cccc4cc(-c5cnn(CCC6CCN(c7ccc(C(=O)N[C@H]8CC[C@H](Oc9ccc(C#N)c(Cl)c9)CC8)nn7)CC6)c5)ncc34)nn2C)C1` [Compound 8, 6-[4-[2-[4-[8-(5-acetyl-1-methyl-6,7-dihydro-4H-pyrazolo[4,3-c]pyridin-3-yl)-3-isoquinolyl]pyrazol-1-yl]ethyl]-1-piperidyl]-N-[4-(3-chloro-4-cyano-phenoxy)cyclohexyl]pyridazine-3-carboxamide] are over 9.00 and at least 10.00.
The molecule `CC(=O)N1CCc2c(c(N3CCCc4cc(-c5cnn(C)c5)c(C(F)F)cc43)nn2C2CCN(C3CCC4(CC3)CN(c3ccc(C(=O)N[C@H]5CC[C@H](Oc6ccc(C#N)c(Cl)c6)CC5)nn3)C4)CC2)C1` [Compound 185, 6-[7-[4-[5-acetyl-3-[7-(difluoromethyl)-6-(1-methylpyrazol-4-yl)-3,4-dihydro-2H-quinolin-1-yl]-6,7-dihydro-4H-pyrazolo[4,3-c]pyridin-1-yl]-1-piperidyl]-2-azaspiro[3.5]nonan-2-yl]-N-[4-(3-chloro-4-cyano-phenoxy)cyclohexyl]pyridazine-3-carboxamide] gave a pIC50 with VCaP cells (Homo sapiens, 216 h) of at least 10.00.
Still for that read-out and setting: to `CC(=O)N1CCc2c(c(N3CCCc4cc(-c5cnn(C)c5)c(C(F)F)cc43)nn2[C@H]2CC[C@H](N(C)C3CCN(c4ccc(C(=O)N[C@H]5CC[C@H](Oc6ccc(C#N)c(Cl)c6)CC5)nn4)CC3)CC2)C1` [Compound 187, 6-[4-[[4-[5-acetyl-3-[7-(difluoromethyl)-6-(1-methylpyrazol-4-yl)-3,4-dihydro-2H-quinolin-1-yl]-6,7-dihydro-4H-pyrazolo[4,3-c]pyridin-1-yl]cyclohexyl]-methyl-amino]-1-piperidyl]-N-[4-(3-chloro-4-cyano-phenoxy)cyclohexyl]pyridazine-3-carboxamide] belongs at least 10.00.
`CC(=O)N1CCc2c(c(N3CCCc4cc(-c5cnn(C)c5)c(C(F)F)cc43)nn2[C@H]2CC[C@@H](N(C)C3CCN(c4ccc(C(=O)N[C@H]5CC[C@H](Oc6ccc(C#N)c(Cl)c6)CC5)nn4)CC3)CC2)C1` [Compound 189, 6-[4-[[4-[5-acetyl-3-[7-(difluoromethyl)-6-(1-methylpyrazol-4-yl)-3,4-dihydro-2H-quinolin-1-yl]-6,7-dihydro-4H-pyrazolo[4,3-c]pyridin-1-yl]cyclohexyl]-methyl-amino]-1-piperidyl]-N-[4-(3-chloro-4-cyano-phenoxy)cyclohexyl]pyridazine-3-carboxamide] had a pIC50 in the experiment with VCaP cells (Homo sapiens, 216 h) of at least 10.00.
In the experiment with VCaP cells (Homo sapiens, 216 h), `CC(=O)N1CCc2c(c(N3CCCc4cc(-c5ccc(OC6CC7(CCN(c8ccc(C(=O)N[C@H]9CC[C@H](Oc%10ccc(C#N)c(Cl)c%10)CC9)nn8)CC7)C6)nc5)c(C(F)F)cc43)nn2C2CCOCC2)C1` [Compound 202, 6-[2-[[5-[1-(5-acetyl-1-tetrahydropyran-4-yl-6,7-dihydro-4H-pyrazolo[4,3-c]pyridin-3-yl)-7-(difluoromethyl)-3,4-dihydro-2H-quinolin-6-yl]-2-pyridyl]oxy]-7-azaspiro[3.5]nonan-7-yl]-N-[4-(3-chloro-4-cyano-phenoxy)cyclohexyl]pyridazine-3-carboxamide] had a pIC50 of 9.00 to 10.00.

In general, pIC50 refers to the IC50 on a negative log10 scale, so that one unit is a factor of ten. Read a high pIC50 as a low IC50.

Source of the values: patent US20250136578A1 (Kolm Therapeutics Inc., priority 2023, published 2025).
